For experiment [1], the system named is Aβ40 in conditioned medium of cells stably expressing Amyloid Precursor Protein (APP). As to the kind of experiment: In vitro BACE-1 cell-based assay (Aβ40 sandwich ELISA). The settings on record: read-out: IC50 IP (μM) BACE1 cell. In a few lines:
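APP-expressing cells treated 24 h at 37 °C with compound in 10-point dose response (top 100 μM or 10 μM, 0.1% DMSO final). Secreted Aβ40 in conditioned medium quantified by sandwich ELISA (pAb40 capture, biotinylated 6E10 detection, time-resolved europium fluorescence); IC50 from percent inhibition versus concentration.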
Background: ELISA stands for enzyme-linked immunosorbent assay.

The next experiment concerns the target human recombinant BACE2 (Homo sapiens (Human), UniProt Q9Y5Z0). As to the kind of experiment: In vitro enzymatic BACE2 FRET assay. To be noted: read-out: IC50 IP (μM) BACE2 enzyme. The experiment is classed as biochemical. In a few lines: (§1)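 Protease purified by Ni-NTA chromatography; start with FRET substrate (50 nM); incubate 1 h; quench with Tris to neutral pH; read fluorescence ex 488 / em 590 nm.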

The next experiment has as its target human recombinant BACE1 (Homo sapiens (Human), UniProt P56817). The experiment is described as follows: In vitro enzymatic BACE1 FRET assay. The format is biochemical. To be noted: read-out: IC50 IP (μM) BACE1 enzyme. In a few lines:
as §1

The target in a further experiment is Recombinant Cat D (Homo sapiens (Human), UniProt P07339). The experiment is described as follows: In vitro enzymatic Cathepsin D (Cat D) FRET assay. The format is biochemical. The settings on record: read-out: IC50 IP (μM) CatD. In a few lines: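 Cleavage of a 20 nM fluorophore/quencher peptide by CHO-expressed recombinant Cat D proceeded for one hour at pH 3.5 (0.05 M citrate, 5 mM CHAPS, 10% DMSO final). Tris addition neutralized the pH to end the reaction. Fluorescence was then measured (ex 500 nm/em 580 nm).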
Sequence of Recombinant Cat D (P07339 65-412): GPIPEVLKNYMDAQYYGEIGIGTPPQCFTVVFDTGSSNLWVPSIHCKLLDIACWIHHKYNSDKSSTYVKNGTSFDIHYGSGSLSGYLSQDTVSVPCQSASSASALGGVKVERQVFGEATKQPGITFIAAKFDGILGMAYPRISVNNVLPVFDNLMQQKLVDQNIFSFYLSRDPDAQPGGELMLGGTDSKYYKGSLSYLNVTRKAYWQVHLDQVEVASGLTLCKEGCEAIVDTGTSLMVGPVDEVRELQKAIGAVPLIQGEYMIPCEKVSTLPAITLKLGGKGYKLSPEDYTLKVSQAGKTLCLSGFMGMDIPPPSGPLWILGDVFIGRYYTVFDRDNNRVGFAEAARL

Broadly, the IC50 is the concentration at which inhibition is half-maximal.

Sequence of human recombinant BACE2 (Q9Y5Z0 63-518): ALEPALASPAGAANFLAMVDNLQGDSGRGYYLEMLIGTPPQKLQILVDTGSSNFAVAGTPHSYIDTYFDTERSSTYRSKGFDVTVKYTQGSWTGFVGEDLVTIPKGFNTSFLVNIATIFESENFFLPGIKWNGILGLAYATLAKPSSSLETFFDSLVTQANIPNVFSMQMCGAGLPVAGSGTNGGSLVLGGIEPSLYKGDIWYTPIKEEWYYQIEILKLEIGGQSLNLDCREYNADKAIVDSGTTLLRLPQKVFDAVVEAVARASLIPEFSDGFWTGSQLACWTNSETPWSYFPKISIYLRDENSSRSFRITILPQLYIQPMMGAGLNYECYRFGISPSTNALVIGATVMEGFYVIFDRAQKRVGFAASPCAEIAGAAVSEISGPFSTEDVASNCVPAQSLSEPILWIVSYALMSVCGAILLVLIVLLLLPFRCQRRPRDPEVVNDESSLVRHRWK
Sequence of human recombinant BACE1 (P56817 46-501): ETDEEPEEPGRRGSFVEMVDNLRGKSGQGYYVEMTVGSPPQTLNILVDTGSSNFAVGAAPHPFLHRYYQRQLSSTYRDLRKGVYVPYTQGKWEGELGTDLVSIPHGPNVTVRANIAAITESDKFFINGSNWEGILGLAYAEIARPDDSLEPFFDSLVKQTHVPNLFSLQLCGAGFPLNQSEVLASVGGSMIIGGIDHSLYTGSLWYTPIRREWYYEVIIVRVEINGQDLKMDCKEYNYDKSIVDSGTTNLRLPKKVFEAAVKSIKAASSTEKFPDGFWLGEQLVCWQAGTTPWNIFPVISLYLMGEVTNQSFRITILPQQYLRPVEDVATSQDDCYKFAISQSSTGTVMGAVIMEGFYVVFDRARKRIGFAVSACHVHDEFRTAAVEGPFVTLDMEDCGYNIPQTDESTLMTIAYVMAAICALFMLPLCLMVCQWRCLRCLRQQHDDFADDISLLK

In the case of `CC#C[C@]12C[C@H]1[C@@](CF)(c1cc(Nc3nccc4nc(OCc5ncco5)cnc34)ccc1F)N=C(N)S2` [Example 958, N-(3-((1S,5S,6S)-3-amino-5-(fluoromethyl)-1-(1-propyn-1-yl)-2-thia-4-azabicyclo[4.1.0]hept-3-en-5-yl)-4-fluorophenyl)-2-(1,3-oxazol-2-ylmethoxy)pyrido[3,4-b]pyrazin-5-amine], the 50% inhibitory concentration (IC50) in experiment [1] stood at 0.04 µM; at human recombinant BACE2, 0.0662 µM; on human recombinant BACE1 it was 1.2 nM; on Recombinant Cat D, 354 µM.
Taken in the same sequence, the figures for `C#CCOc1cnc(C(=O)Nc2ccc(F)c([C@@]3(CF)N=C(N)S[C@@]4(c5c[nH]nn5)C[C@@H]34)c2)cn1` [Example 959, N-(3-((1S,5S,6S)-3-amino-5-(fluoromethyl)-1-(1H-1,2,3-triazol-4-yl)-2-thia-4-azabicyclo[4.1.0]hept-3-en-5-yl)-4-fluorophenyl)-5-(2-propyn-1-yloxy)-2-pyrazinecarboxamide] were 0.00152 µM, below 0.00203 µM, 0.0901 nM and 44.1 µM.
`C#CCOc1cnc2c(Nc3ccc(F)c([C@@]4(CF)N=C(N)S[C@@]5(c6c[nH]nn6)C[C@@H]45)c3)nccc2n1` [Example 960, N-(3-((1S,5S,6S)-3-amino-5-(fluoromethyl)-1-(1H-1,2,3-triazol-4-yl)-2-thia-4-azabicyclo[4.1.0]hept-3-en-5-yl)-4-fluorophenyl)-2-(2-propyn-1-yloxy)pyrido[3,4-b]pyrazin-5-amine]: the IC50 was 0.00624 µM in experiment [1], 0.00422 µM on human recombinant BACE2, 0.507 nM on human recombinant BACE1 and above 400 µM at Recombinant Cat D.
For `C[C@]1(c2cc(Nc3ncnc4cc(C#N)cnc34)ccc2F)N=C(N)S[C@@]2(CO)[C@@H]1C2(F)F` [Example 961, 4-((3-((1R,5S,6S)-3-amino-7,7-difluoro-1-(hydroxymethyl)-5-methyl-2-thia-4-azabicyclo[4.1.0]hept-3-en-5-yl)-4-fluorophenyl)amino)pyrido[3,2-d]pyrimidine-7-carbonitrile], in that order: 0.0214 µM, 0.0223 µM, 12 nM and 171 µM.
Taken in the same sequence, the figures for `NC1=N[C@](CF)(c2cc(NC(=O)c3ccc(Cl)cn3)ccc2F)[C@H]2C3CSC[C@@]32S1` (stereo partly drawn) [Example 962, N-(3-((4S,4aR,7aS)-2-amino-4-(fluoromethyl)-4a,4b,5,7-tetrahydro-4H-thieno[3′,4′:2,3]cyclopropa[1,2-e][1,3]thiazin-4-yl)-4-fluorophenyl)-5-chloropicolinamide] were 0.104 µM, 0.0199 µM, 10 nM and 21 µM.
Turning to `CNC(=O)[C@]12C[C@H]1[C@@](C)(c1cc(NC(=O)c3cnc(OCC(F)(F)C(F)F)cn3)cc(F)c1F)N=C(N)S2` [Example 963, (1S,5S,6S)-3-amino-5-(2,3-difluoro-5-(((5-(2,2,3,3-tetrafluoropropoxy)-2-pyrazinyl)carbonyl)amino)phenyl)-N,5-dimethyl-2-thia-4-azabicyclo[4.1.0]hept-3-ene-1-carboxamide], the IC50 in experiment [1] was found to be 0.0026 µM; on human recombinant BACE2 it was 0.0631 µM; at human recombinant BACE1, 0.194 nM; on Recombinant Cat D, 267 µM.
For the compound `C#CCOc1cnc(C(=O)Nc2cnc(OC)c([C@@]3(C)N=C(N)S[C@@]4(C#N)C[C@H]43)c2)cn1` [Example 964, N-(5-((1S,5S,6S)-3-amino-1-cyano-5-methyl-2-thia-4-azabicyclo[4.1.0]hept-3-en-5-yl)-6-methoxy-3-pyridinyl)-5-(2-propyn-1-yloxy)-2-pyrazinecarboxamide], the 50% inhibitory concentration (IC50) in experiment [1] was determined as 0.00154 µM; on human recombinant BACE2 it was 0.00887 µM; on human recombinant BACE1, 0.737 nM; at Recombinant Cat D, 98.9 µM.
Taken in the same sequence, the figures for `C#C[C@H](C)Oc1cnc(C(=O)Nc2cc(F)c(F)c([C@@]3(C)N=C(N)S[C@@]4(C(=O)NC)C[C@H]43)c2)cn1` [Example 967, (1S,5S,6S)-3-amino-5-(2,3-difluoro-5-(((5-(((1S)-1-methyl-2-propyn-1-yl)oxy)-2-pyrazinyl)carbonyl)amino)phenyl)-N,5-dimethyl-2-thia-4-azabicyclo[4.1.0]hept-3-ene-1-carboxamide] were 0.000539 µM, 0.0149 µM, 0.11 nM and 269 µM.
With `COC[C@H](C)Oc1cnc(C(=O)Nc2ccc(F)c([C@@]3(C)N=C(N)S[C@@]4(COC)C[C@H]43)c2)cn1` [Example 970, N-(3-((1S,5S,6S)-3-amino-1-(methoxymethyl)-5-methyl-2-thia-4-azabicyclo[4.1.0]hept-3-en-5-yl)-4-fluorophenyl)-5-((1S)-2-methoxy-1-methylethoxy)-2-pyrazinecarboxamide], the IC50 in experiment [1] was 0.021 µM; on human recombinant BACE2, 0.333 µM; on human recombinant BACE1 it was 8.5 nM; at Recombinant Cat D, above 400 µM.
For `COC[C@H](C)Oc1cnc(C(=O)Nc2ccc(F)c([C@@]3(C)N=C(N)S[C@@]4(C(F)F)C[C@@H]34)c2)cn1` [Example 971, N-(3-((1S,5S,6S)-3-amino-1-(difluoromethyl)-5-methyl-2-thia-4-azabicyclo[4.1.0]hept-3-en-5-yl)-4-fluorophenyl)-5-((1S)-2-methoxy-1-methylethoxy)-2-pyrazinecarboxamide], in that order: 0.0185 µM, 0.38 µM, 5.22 nM and 611 µM.
For the compound `C[C@]1(c2cc(NC(=O)c3cnc(OCC(F)(F)F)cn3)ccc2F)N=C(N)S[C@@]2(C(=O)NCC(F)(F)F)C[C@H]21` [Example 972, (1S,5S,6S)-3-amino-5-(2-fluoro-5-(5-(2,2,2-trifluoroethoxy)pyrazine-2-carboxamido)phenyl)-5-methyl-N-(2,2,2-trifluoroethyl)-2-thia-4-azabicyclo[4.1.0]hept-3-ene-1-carboxamide], the IC50 in experiment [1] was found to be 0.00455 µM; at human recombinant BACE2 it was 0.0794 µM; on human recombinant BACE1, 0.454 nM; on Recombinant Cat D it was 138 µM.
Taken in the same sequence, the figures for `CNC(=O)[C@]12C[C@H]1[C@@](C)(c1cc(NC(=O)c3cnc(OCC(F)(F)F)cn3)ccc1F)N=C(N)S2` [Example 973, (1S,5S,6S)-3-amino-5-(2-fluoro-5-(5-(2,2,2-trifluoroethoxy)pyrazine-2-carboxamido)phenyl)-N,5-dimethyl-2-thia-4-azabicyclo[4.1.0]hept-3-ene-1-carboxamide] were 0.00192 µM, 0.0476 µM, 0.404 nM and 1570 µM.
Taken in the same sequence, the figures for `CC(C)[C@H](C)NC(=O)[C@]12C[C@H]1[C@@](C)(c1cc(NC(=O)c3cnc(OCC(F)(F)F)cn3)ccc1F)N=C(N)S2` [Example 974, (1S,5S,6S)-3-amino-5-(2-fluoro-5-(5-(2,2,2-trifluoroethoxy)pyrazine-2-carboxamido)phenyl)-5-methyl-N—((S)-3-methylbutan-2-yl)-2-thia-4-azabicyclo[4.1.0]hept-3-ene-1-carboxamide] were 0.00257 µM, 0.014 µM, 1.32 nM and 14.5 µM.

The values are drawn from patent US20160046618A1, “Cyclopropyl Fused Thiazin-2-Amine Compounds as Beta-Secretase Inhibitors and Methods of Use” (AMGEN INC., priority 2014, published 2016).
